According to patent publication US20220151959A1, “METHOD FOR TREATING ALLERGIC SKIN DISEASE OR PRURITUS CUTANEOUS” (KOREA RESEARCH INSTITUTE OF BIOSCIENCE AND BIOTECHNOLOGY, priority 2019, published 2022):

Tests used:
[1] = test system: interleukin-13 (IL-13); assay: Inflammatory cytokine expression in skin tissue of oxazolone model (qPCR), IL-13; type: in vivo, mouse; conditions: group treated with both colchicine (0.05%) and oxazolone, compared with oxazolone treatment, FIG. 5
Experimental: (§1) Specifically, 150 μl of 3% 4-ethoxymethylene-2-phenyl-2-oxazolin-5-one (oxazolone) was applied on an abdominal skin of a 6-week-old laboratory animal to induce an immune response, and 20 μl of the same compound diluted to 0.1% was applied on the ear of a laboratory animal 3 times a week (total 6 times) to induce a skin disease. The ear of the laboratory animal was treated with 20 μl of the colchicine according to the present invention at a concentration of 0.05% 3 times a week (total 6 times). A negative control group treated with only ethanol which was a solvent and a positive control group treated with only oxazolone were also reflected in the experiment. The number of mice in each experiment group was maintained at 10 or more and the experiment was repeated 3 times.
(§2) After completing the application experiment of Example 2, a skin tissue was collected from each mouse and crushed with a tissue crusher to extract RNA. The crushed tissue powder was dissolved in a Trizol reagent solution (Sigma) and RNA was extracted using a RNeasy mini kit (Qiagen). The extracted RNA was reverse-transcribed to cDNA using ImProm-II™ Reverse Transcription kit (Promega), and then a cytokine degree present in the skin tissue was measured by a quantitative PCR (qPCR) method using CFX96™ Real-Time PCR Detection System (Bio-Rad). […]

[2] = test system: filaggrin; assay: Filaggrin expression in mouse skin tissue after colchicine application (qPCR); type: in vivo, mice; conditions: 0.04% (w/w) and 0.1% (w/w) applied on back and ear skin twice a week for 4 weeks or more, FIG. 1
Experimental: Specifically, colchicine was continuously applied on back and ear skin areas of laboratory mice at a low concentration of 0.04% (w/w) and at a high concentration of 0.1% (w/w) twice a week for 4 weeks or more. After completing the application experiment, a skin tissue was collected from each mouse and crushed with a tissue crusher to extract RNA. The crushed tissue powder was dissolved in a Trizol reagent solution (Sigma) and RNA was extracted using a RNeasy mini kit (Qiagen). The extracted RNA was reverse-transcribed to cDNA using IMPROM-II™ Reverse Transcription kit (Promega), and then an amount of filaggrin present in the skin tissue was measured by a quantitative PCR (qPCR) method using CFX96™ Real-Time PCR Detection System (Bio-Rad).

[3] = Moisture loss, skin barrier index and composite index by transdermal moisture loss meter (Tewameter); type: in vivo, mice
Experimental: Colchicine was continuously applied on back and ear skin areas of laboratory mice at concentration of 0.05% (w/w) twice a week for 4 weeks or more, and then a moisture loss and skin barrier and composite indexes were measured by a transdermal moisture loss meter (Tewameter).
The experiment results are shown in FIG. 2, and were compared with an experiment animal group with no colchicine applied.

[4] = test system: allergic skin disease model (atopic dermatitis model) mouse derived by oxazolone; assay: Oxazolone-derived allergic skin disease (atopic dermatitis) model mouse: naked-eye observation and Hematoxylin and Eosin staining of ear skin; type: in vivo
Experimental: as §1
In addition, for pathological observation of skin after completing the application, an ear skin tissue of each mouse was collected and stained with Hematoxylin and Eosin, and the results are shown in FIG. 4.

[5] = test system: interleukin-4 (IL-4); assay: Inflammatory cytokine expression in skin tissue of oxazolone model (qPCR), IL-4; type: in vivo, mouse; conditions: group treated with both colchicine (0.05%) and oxazolone, compared with oxazolone treatment, FIG. 5
Experimental: as §1, §2

[6] = 0.05% (w/w) on back and ear skin twice a week for 4 weeks or more, Tewameter, vs group with no colchicine applied, FIG. 2
[7] = 20 μl of 0.05% colchicine on ear, total 6 times, with oxazolone treatment, H&E staining of ear skin, FIG. 4

COc1cc2c(c(OC)c1OC)-c1ccc(OC)c(=O)cc1[C@@H](NC(C)=O)CC2 [colchicine]
expression level of IL-13 in skin tissue [1]: ≤ 50%
expression amount of filaggrin [2]: increased an expression amount of filaggrin concentration-dependently
skin barrier index [3, 6]: greatly increased
skin composite index [3, 6]: greatly increased
skin moisture loss [3, 6]: decreased
side effect with long-term application ([3]; skin application to mice for 4 weeks or more): without any side effect
skin condition observed with the naked eye (ear) ([4]; 20 μl of 0.05% colchicine on ear 3 times a week (total 6 times), simultaneously with oxazolone, FIG. 3): very similar to that of a normal group treated with only a solvent
epithelial thickness [4, 7]: decreased to a degree very similar to the normal case
total skin thickness [4, 7]: decreased to a degree very similar to the normal case
skin abnormal symptom ([4]; control group treated with only colchicine, H&E staining of ear skin): not detected
expression level of IL-4 in skin tissue [5]: ≤ 50%
